# Laboratory results taken from ChEMBL document CHEMBL3526034 (Drug Metab Dispos, 2013).
# How the values were obtained:
# [1] = target: UDP-glucuronosyltransferase 2B7 (Homo sapiens, UniProt P16662); test: (§1) Drug metabolism assessed as UDPGA-fortified human recombinant UGT2B7-mediated DTG glucuronide metabolite ((2S,3S,4S,5R,6S)-6-((4R,12aS)-9-(2,4-difluorobenzylcarbamoyl)-4-methyl-6,8-dioxo-3,4,6,8,12,12a-hexahydro-2H-[1,3]oxazino[3,2-d]pyrido[1,2-a]pyrazin-7-yloxy)-3,4,5-trihydroxytetrahydro-2H-pyran-2-carboxylic acid) formation after 120 mins by radio-HPLC analysis; assay type: ADME; details: recombinant enzyme
# Cytochrome P450 2C9 = Cytochrome P450 2C9 (Homo sapiens, UniProt P11712); test: Drug metabolism in supersomes expressing human recombinant CYP2C9 assessed as NADPH-fortified enzyme-mediated metabolite formation at 5 uM after 120 mins by radio HPLC analysis; assay type: ADME; details: 2 h
# [2] = target: UDP-glucuronosyltransferase 2B4 (Homo sapiens, UniProt P06133); test: as §1, with “UGT2B4-mediated” for “UGT2B7-mediated”, “formation at 16 uM” for “formation”; assay type: ADME; details: recombinant enzyme
# [3] = target: T1, UDP-glucuronosyltransferase 1A1 (Homo sapiens, UniProt P22309); test: as §1, with “as” for “as UDPGA-fortified”, “UGT1A1-mediated” for “UGT2B7-mediated”, “M2” for “metabolite”, “mins measured per mg of protein” for “mins”; assay type: ADME; details: recombinant enzyme
# T1 sequence (P22309 whole entry): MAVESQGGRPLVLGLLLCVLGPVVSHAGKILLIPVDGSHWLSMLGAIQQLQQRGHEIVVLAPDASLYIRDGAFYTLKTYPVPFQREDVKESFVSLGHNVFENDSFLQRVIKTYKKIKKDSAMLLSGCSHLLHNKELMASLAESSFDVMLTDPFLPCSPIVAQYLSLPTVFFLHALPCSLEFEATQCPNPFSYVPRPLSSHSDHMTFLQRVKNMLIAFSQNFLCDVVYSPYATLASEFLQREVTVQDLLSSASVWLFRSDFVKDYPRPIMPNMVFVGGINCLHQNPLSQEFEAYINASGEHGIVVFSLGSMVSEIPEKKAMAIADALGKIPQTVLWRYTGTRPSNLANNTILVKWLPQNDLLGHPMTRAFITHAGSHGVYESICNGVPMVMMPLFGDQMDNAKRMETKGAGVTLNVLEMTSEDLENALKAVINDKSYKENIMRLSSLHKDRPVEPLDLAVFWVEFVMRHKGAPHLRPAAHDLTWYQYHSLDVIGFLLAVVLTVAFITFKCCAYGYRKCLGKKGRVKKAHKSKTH
# CYP3A4 = CYP3A4 (Homo sapiens, UniProt P08684); test: Inhibition of CYP3A4 in human liver microsomes using nifedipine as substrate at 100 uM preincubated for 20 mins with substrate prior to initiation of reaction with NADPH by HPLC analysis; assay type: ADME; details: probe nifedipine
# [4] = target: Solute carrier family 22 member 2 (Homo sapiens, UniProt O15244); test: Inhibition of human OCT2 expressed in MDCK2 cells using [14C]metformin as substrate at 25 uM by liquid scintillation counting analysis; assay type: ADME, cell-based; details: mdck-ii
# [5] = In vitro passive membrane permeability across dog MDCK2 cells at 3 uM using fasted state-simulated intestinal fluid buffer at pH 7.4 on donor side and 1% human serum albumin at pH 7.4 on receiver side by liquid scintillation counting analysis; assay type: ADME, cell-based, Canis lupus familiaris, MDCK-II; details: MDCK, read-out: permeability
# [6] = target: T2, Broad substrate specificity ATP-binding cassette transporter ABCG2 (Homo sapiens, UniProt Q9UNQ0); test: Inhibition of human BCRP; assay type: ADME
# T2 sequence (Q9UNQ0 whole entry): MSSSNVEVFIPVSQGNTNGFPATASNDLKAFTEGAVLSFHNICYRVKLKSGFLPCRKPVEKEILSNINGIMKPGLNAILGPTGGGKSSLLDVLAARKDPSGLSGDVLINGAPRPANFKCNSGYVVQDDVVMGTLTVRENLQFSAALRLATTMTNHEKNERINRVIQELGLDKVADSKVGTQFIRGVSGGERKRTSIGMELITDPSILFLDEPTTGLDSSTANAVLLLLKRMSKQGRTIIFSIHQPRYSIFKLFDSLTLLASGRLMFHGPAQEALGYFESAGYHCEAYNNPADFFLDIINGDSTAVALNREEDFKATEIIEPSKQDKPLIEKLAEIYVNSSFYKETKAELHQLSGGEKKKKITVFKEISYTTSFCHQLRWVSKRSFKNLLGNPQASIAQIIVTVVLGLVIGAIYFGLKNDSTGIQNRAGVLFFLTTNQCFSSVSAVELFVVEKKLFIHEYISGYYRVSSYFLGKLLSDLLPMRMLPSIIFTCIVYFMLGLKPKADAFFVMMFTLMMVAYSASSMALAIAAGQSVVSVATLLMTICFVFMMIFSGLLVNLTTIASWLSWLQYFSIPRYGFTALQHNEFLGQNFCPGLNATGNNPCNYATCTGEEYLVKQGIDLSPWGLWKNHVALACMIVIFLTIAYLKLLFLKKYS
# [7] = target: T1, UDP-glucuronosyltransferase 1A1; test: as §1, with “UGT1A1-mediated” for “UGT2B7-mediated”, “formation at 16 uM” for “formation”; assay type: ADME; details: recombinant enzyme
# Hepatocyte = test: Induction of CYP2B6 mRNA expression in human hepatocytes at 1 to 40 uM after 48 hrs by real time PCR analysis; assay type: ADME, cell-based
# Cytochrome P450 2B6 = target: T3, Cytochrome P450 2B6 (Homo sapiens, UniProt P20813); test: Inhibition of CYP2B6 in human liver microsomes using bupropion as substrate preincubated for 20 mins with substrate prior to initiation of reaction with NADPH by HPLC analysis; assay type: ADME
# T3 sequence (P20813 whole entry): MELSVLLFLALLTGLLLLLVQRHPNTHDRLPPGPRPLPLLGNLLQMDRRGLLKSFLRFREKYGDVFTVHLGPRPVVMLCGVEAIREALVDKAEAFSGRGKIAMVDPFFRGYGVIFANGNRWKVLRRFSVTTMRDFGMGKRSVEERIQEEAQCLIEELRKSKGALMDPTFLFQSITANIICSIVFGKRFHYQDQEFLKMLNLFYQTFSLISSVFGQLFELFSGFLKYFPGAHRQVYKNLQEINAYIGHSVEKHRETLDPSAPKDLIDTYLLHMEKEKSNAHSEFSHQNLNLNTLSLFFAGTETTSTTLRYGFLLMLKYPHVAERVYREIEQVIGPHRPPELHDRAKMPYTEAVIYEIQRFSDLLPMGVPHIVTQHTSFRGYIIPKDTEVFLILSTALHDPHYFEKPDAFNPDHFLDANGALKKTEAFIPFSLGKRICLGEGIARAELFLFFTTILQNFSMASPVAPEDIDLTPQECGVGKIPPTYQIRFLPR
# [8] = as §1, with “metabolism in human hepatocytes” for “metabolism”, “as” for “as UDPGA-fortified human recombinant UGT2B7-mediated”, “formation at 50 uM” for “formation”, “4 to 20 hrs” for “120 mins”; assay type: ADME, cell-based, Hepatocyte
# Sequence of CYP3A4 (P08684 whole entry): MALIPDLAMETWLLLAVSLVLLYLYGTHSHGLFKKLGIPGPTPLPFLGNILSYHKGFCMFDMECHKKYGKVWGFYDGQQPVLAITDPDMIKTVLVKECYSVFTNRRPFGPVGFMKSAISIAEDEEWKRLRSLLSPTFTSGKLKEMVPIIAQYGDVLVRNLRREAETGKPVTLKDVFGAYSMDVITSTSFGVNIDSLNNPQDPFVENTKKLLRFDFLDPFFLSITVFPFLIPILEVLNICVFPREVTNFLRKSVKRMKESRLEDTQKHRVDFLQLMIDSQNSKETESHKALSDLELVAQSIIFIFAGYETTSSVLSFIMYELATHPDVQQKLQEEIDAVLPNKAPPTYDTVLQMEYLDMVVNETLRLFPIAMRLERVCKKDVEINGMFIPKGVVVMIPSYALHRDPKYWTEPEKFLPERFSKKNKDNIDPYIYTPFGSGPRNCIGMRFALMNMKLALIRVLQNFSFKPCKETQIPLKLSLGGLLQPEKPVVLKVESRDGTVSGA
# Sequence of UDP-glucuronosyltransferase 2B4 (P06133 whole entry): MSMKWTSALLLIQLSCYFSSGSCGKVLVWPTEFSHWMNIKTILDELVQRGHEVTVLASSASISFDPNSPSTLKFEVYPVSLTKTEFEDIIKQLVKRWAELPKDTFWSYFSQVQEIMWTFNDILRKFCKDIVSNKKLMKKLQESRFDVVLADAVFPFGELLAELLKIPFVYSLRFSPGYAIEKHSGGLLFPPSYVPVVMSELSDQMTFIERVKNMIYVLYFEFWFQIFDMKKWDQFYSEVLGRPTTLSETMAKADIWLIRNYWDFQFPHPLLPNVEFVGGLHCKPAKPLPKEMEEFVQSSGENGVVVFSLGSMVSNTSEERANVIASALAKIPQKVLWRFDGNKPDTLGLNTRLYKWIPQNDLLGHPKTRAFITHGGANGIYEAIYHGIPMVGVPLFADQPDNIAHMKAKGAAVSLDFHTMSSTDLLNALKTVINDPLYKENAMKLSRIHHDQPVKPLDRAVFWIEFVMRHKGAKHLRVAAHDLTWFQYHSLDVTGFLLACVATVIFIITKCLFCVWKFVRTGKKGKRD
# Sequence of Solute carrier family 22 member 2 (O15244 whole entry): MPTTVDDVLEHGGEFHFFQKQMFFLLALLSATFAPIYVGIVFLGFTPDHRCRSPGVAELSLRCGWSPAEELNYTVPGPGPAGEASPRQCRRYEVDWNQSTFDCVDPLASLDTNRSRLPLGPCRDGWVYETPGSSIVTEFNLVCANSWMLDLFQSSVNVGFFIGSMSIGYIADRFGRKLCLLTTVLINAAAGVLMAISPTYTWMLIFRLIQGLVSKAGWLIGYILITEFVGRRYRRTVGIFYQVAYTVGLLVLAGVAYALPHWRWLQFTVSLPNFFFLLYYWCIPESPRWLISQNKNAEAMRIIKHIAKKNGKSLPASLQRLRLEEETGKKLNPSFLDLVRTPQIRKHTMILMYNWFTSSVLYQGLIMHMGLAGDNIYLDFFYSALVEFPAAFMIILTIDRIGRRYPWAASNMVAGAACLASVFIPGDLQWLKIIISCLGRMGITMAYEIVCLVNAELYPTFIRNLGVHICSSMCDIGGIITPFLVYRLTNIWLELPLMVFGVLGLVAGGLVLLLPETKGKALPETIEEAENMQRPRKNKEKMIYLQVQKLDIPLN
# Sequence of Cytochrome P450 2C9 (P11712 whole entry): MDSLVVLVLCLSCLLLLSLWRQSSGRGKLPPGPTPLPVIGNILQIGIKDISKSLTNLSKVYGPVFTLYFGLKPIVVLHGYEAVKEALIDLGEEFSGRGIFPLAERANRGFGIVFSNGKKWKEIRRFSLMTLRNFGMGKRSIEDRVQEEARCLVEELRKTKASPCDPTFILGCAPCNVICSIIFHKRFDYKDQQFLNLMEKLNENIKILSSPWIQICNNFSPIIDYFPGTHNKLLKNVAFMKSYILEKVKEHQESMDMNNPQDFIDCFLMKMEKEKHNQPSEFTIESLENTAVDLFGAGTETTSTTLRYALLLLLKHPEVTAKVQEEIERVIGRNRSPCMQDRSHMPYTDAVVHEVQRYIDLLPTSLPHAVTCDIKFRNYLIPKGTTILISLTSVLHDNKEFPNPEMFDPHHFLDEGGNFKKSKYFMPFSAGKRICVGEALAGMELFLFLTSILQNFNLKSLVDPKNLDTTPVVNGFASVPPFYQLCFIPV
# Sequence of UDP-glucuronosyltransferase 2B7 (P16662 whole entry): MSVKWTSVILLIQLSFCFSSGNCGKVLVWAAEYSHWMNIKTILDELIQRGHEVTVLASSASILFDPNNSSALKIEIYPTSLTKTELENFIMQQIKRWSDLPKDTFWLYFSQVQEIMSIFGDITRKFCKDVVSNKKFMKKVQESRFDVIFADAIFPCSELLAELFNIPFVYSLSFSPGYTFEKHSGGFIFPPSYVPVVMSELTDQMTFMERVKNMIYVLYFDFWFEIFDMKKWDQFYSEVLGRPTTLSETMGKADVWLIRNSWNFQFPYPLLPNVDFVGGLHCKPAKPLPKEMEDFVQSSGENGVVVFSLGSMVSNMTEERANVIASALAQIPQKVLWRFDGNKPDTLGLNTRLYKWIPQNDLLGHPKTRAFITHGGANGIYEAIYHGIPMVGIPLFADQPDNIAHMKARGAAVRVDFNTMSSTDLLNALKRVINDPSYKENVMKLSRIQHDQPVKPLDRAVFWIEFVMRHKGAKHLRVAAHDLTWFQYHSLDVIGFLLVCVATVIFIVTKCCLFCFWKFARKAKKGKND
smiles,measurement,setting,value
C[C@@H]1CCO[C@H]2Cn3cc(C(=O)NCc4ccc(F)cc4F)c(=O)c(O)c3C(=O)N12 [DOLUTEGRAVIR],Drug metabolism,[1],metabolite_not_detected
same,Drug metabolism,Cytochrome P450 2C9,metabolite_not_detected
same,Drug metabolism,[2],metabolite_not_detected
same,Vmax,[3],67 pmol/min
same,inhibition at 100 µM,CYP3A4,20%
same,inhibition (INH),[4],91%
same,Papp at 3 µM,[5],25.2 ×10⁻⁶ cm/s
same,IC50,[6],67 µM
same,Drug metabolism,[7],metabolite_detected
same,Activity,Hepatocyte,Toxic
same,IC50,Cytochrome P450 2B6,> 100 µM
same,Drug metabolism,[8],metabolite_detected
